From patent publication US12427138B2, “Treatment of Meniere's disease” (SOUND PHARMACEUTICALS INCORPORATED, priority 2016, dated 2025)
Entries after “also recorded” stand apart in the source; their conditions may differ.

What was measured:
[1] = tested on: adults with Meniere's disease; assay: Phase 1b clinical study: safety and tolerability of SPI-1005; type: in vivo, human; conditions: first two cohorts (26 of 40 subjects); for safety and tolerability: oral dosing BID for 21 days
Protocol: (§1) The general approach for the investigation of the safety and efficacy of SPI-1005 for Meniere's disease is conducting this phase lb, safety, pharmacokinetic and pharmacodynamic study in 40 adults with Meniere's disease. The study is evaluating escalating doses of SPI-1005 at 200, 400 or 600 mg po BID versus placebo for twenty-one days for impact on pure-tone audiometry, speech discrimination, electrocochleography, and patient-reported outcomes using validated questionnaires for assessing vertigo and tinnitus (Hornibrook, et al., 2012; Meikle, et al., 2011; Yardley, et al., 2004). This study is ongoing and being conducted in compliance with the protocol, Good Clinical Practice (GCP) and the applicable regulatory requirements.
The safety and tolerability of SPI-1005 is being determined by examining the toxicities and adverse events that are attributable to treatment. […]
Before, during, and for 28 days after administration of SPI-1005, patients were evaluated for safety by history, physical examination, vital signs and blood tests (complete blood count [CBC], Chemistry-20 [Chem-20]). Peak and trough plasma levels of ebselen and its major metabolite were determined using liquid chromatography-mass spectrometry (LCMS) at certain time points. Additionally, plasma was analyzed by High Performance Liquid Chromatography-Inductively Coupled Plasma-Mass Spectrometry (HPLC-ICP-MS) for total selenium at the corresponding time points. Patients were monitored for adverse events at each clinic visit. Female patients received pregnancy testing, and those found to be pregnant were excluded or discontinued from the study and monitored for adverse events. […]
History and physical examinations, vital signs and analysis of lab reports were performed to evaluate the safety of SPI-1005. […] Blood test results were analyzed according to currently established laboratory norms. […]
Blood testing was performed at specified intervals to evaluate the safety of SPI-1005. […] Blood was collected and shipped to a designated CRO(s) to quantify ebselen, ebselen metabolite, and total selenium. […]

[2] = tested on: adults with Meniere's disease; assay: Phase 1b clinical study: pure-tone audiometry (PTA), low frequency hearing; type: in vivo, human
Protocol: as §1
(§2) The effect of SPI-1005 on hearing and vertigo was evaluated at baseline, at the end of 21 days of treatment and 28 days after completing treatment. Tinnitus was evaluated at baseline, weekly during treatment, and 7 and 28 days after treatment. Hearing was evaluated using pure-tone audiometric testing at 0.25, 0.5, 1, 2, 3, 4, 6, and 8 kHz, and speech discrimination using the WINT at 24, 20, 16, 12, 8, 4, and 0 Signal-to-Noise ratio (SNR). The severity of vertigo was assessed using the VSS. The severity of tinnitus was assessed using the TFI. In addition, ECochG was conducted at baseline, at the end of treatment and 28 days after completing treatment in order to measure the pharmacodynamic response.
(§3) Audiological evaluations were performed at specified intervals to evaluate the efficacy of SPI-1005. […] These were scored by study personnel. […]
(§4) Audiometric data were collected in the form of categorical and continuous variables. Categorical data were analyzed using the chi-square distribution. Continuous data were analyzed using mixed-effects multiple-repeated measures, and post-hoc analysis, when necessary, was adjusted using Bonferroni applications. Non-parametric tests included the Mann-Whitney U. Calculated p-values were considered statistically significant at or below an alpha value of 0.05. […]

[3] = tested on: adults with Meniere's disease; assay: Phase 1b clinical study: speech discrimination, Words-in-Noise Test (WINT) / word recognition scores; type: in vivo, human
Protocol: as §1, §2, §3, §4

[4] = tested on: adults with Meniere's disease; assay: Phase 1b clinical study: Tinnitus Functional Index (TFI); type: in vivo, human
Protocol: as §1, with “This study is ongoing and being conducted in compliance with the protocol, Good Clinical Practice (GCP) and the applicable regulatory requirements.” left out
as §2, with “In addition, ECochG was conducted at baseline, at the end of treatment and 28 days after completing treatment in order to measure the pharmacodynamic response.” left out
as §3

[5] = tested on: adults with Meniere's disease; assay: Phase 1b clinical study: Tinnitus Loudness (TL) visual analogue scale; type: in vivo, human
Protocol: as §1
Multiple clinical assessments and analysis of auditory and vestibular function • Pure tone audiometry and word recognition scores: Baseline, 21d tx, and 28d post-tx • Hearing loss is typically unilateral and low frequency (0.25, 0.5 and 1 kHz) • Significant hearing improvement ≥10 dB reduction from baseline • Words in noise tests (WINT) 35 words under 7 different SNRs to each ear (0-35) • Significant WINT improvement ≥10% increase from baseline • Tinnitus Functional Index (TFI) : Baseline, and 7d, 14d and 21d tx, and 7d and 28d post-tx • 25 questions answered by patient regarding their tinnitus severity (0-100) • Significant TFI improvement ≥10 pt reduction from baseline • Tinnitus Loudness (TL) answered by patient on a visual analogue scale (0-10) • Significant TL improvement ≥2 pt reduction from baseline • Vertigo Symptom Scale (VSS): Baseline, 21d tx, and 28d post-tx • 15 questions answered by patient regarding their vertigo severity (0-60) • Significant VSS improvement ≥6 pt reduction from baseline

[6] = tested on: adults with Meniere's disease; assay: Phase 1b clinical study: Vertigo Symptom Scale (VSS); type: in vivo, human
Protocol: as §1, with “This study is ongoing and being conducted in compliance with the protocol, Good Clinical Practice (GCP) and the applicable regulatory requirements.” left out
as §2, with “In addition, ECochG was conducted at baseline, at the end of treatment and 28 days after completing treatment in order to measure the pharmacodynamic response.” left out
as §3

[7] = tested on: adults with Meniere's disease; assay: Phase 1b clinical study: initial analysis of efficacy, secondary endpoints versus placebo; type: in vivo, human; conditions: two analyzed cohorts
Protocol: as §1, with “requirements. […]” for “requirements.”
Study participants were been randomized to SPI-1005 or placebo in this double-blind, dose-escalation study to evaluate its safety and preliminary efficacy. Patients, aged 19-70 years, with probable or definite Meniere's disease have undergone baseline testing to have their severity of sensorineural hearing loss, tinnitus and vertigo determined before the start of study treatment (see Table 3: Schedule of Assessments). […]

[8] = 25° Celsius; cited from earlier work
[9] = Noguchi et al., 1992; 1994; cited from earlier work
[10] = tested on: cytochrome-C release from mitochondria; conditions: during lipid peroxidation; Namura et al., 2001; cited from earlier work
[11] = tested on: cochlea following noise- or ototoxin-induced injury; conditions: preclinical animal studies; cited from earlier work

## O=c1c2ccccc2[se]n1-c1ccccc1 [ebselen, 2-phenyl-1,2-benzisoselenazol-3(2H)-one]
[1]
  drug-related adverse events: no drug-related adverse events have occurred
  safety and tolerability: safe and well tolerated
[1]; listed as SPI-1005
  safety and tolerability: well tolerated with no adverse events due to study drug
[2]; PTA, oral dosing 21 days, first two cohorts
  highest improvement in low frequency (0.25, 0.5, and 1 kHz) hearing: ≤ 35 dB
[2]; first two cohorts
  PTA improvement, actives vs placebos: significant and specific to actives vs placebos
[2]; ≥10 dB reduction from baseline, no significant improvement in placebos
  share of actives with significant hearing improvement ≥10 dB: 60%
[3]; first two cohorts
  WINT improvement, actives vs placebos: significant and specific to actives vs placebos
[3]; word recognition scores, oral dosing 21 days
  highest improvement over baseline WRS: ≤ 120%
[3]; ≥10% increase from baseline, no significant improvement in placebos
  share of actives with significant WINT improvement ≥10% increase: 35%
[4]; placebo 50%
  share of actives with significant TFI improvement ≥10 pt reduction: 40%
[4]; scale 0-100
  highest improvement in TFI score (reduction): ≤ 62 pt
[5]; human, in vivo
  TL improvement, actives vs placebo: greater in actives than placebo
[5]; placebo 33%
  share of actives with significant TL improvement ≥2 pt reduction: 70%
[5]; scale 0-10
  highest improvement in tinnitus loudness (reduction): ≤ 8 pt
[6]; human, in vivo
  VSS improvement, actives vs placebo: greater in actives than placebo
[6]; placebo 33%
  share of actives with significant VSS improvement ≥6 pt reduction: 55%
[7]
  clinical efficacy (hearing, tinnitus, vertigo) versus placebo: achieved several secondary endpoints versus placebo; also recorded: good clinical efficacy
[7]; listed as Ebselen
  clinical efficacy (hearing, tinnitus, vertigo) versus placebo: clinically relevant improvements in hearing, tinnitus and vertigo
[8]
  solubility in aqueous solutions: slightly soluble
[9]
  activity against peroxynitrite: strong activity against peroxynitrite
[10]
  effect on cytochrome-C release from mitochondria and nuclear damage: reduces cytochrome-C release from mitochondria and nuclear damage
[11]
  effect on pathologic changes in the cochlea: prevent or reverse the pathologic changes in the cochlea
